Reference: US6727407B1, “NUCLEIC ACIDS ENCODING THE ARABIDOPSIS PROTEIN KINASE β-SUBUNIT CKB3 AND A METHOD OF ALTERING CIRCADIAN RHYTHMS AND FLOWERING IN A PLANT BY TRANFORMING WITH A NUCLEIC ACID ENCODING A PROTEIN KINASE β-SUBUNIT” (Regents of the University of California, priority 1998, dated 2004)

Experiments:
[1] = system: CK2-like activity in Arabidopsis whole-cell extracts; assay: In vitro kinase assay: phosphorylation of GST-CCA1 by Arabidopsis whole-cell extracts; type: biochemical; details: 10 mM inhibitor, 160 μg WCE, [γ-32P]ATP, 30° C. 30 min
Procedure: (§1) GST (lanes 1 and 4) or GST-CCA1 (lanes 2, 3, 5-7) were incubated with 160 μg of WCE in the absence (lanes 1, 2, 4, and 5) or presence (lane 3) of 10 mM 2,3-diphosphoglycerate (D. G.), with recombinant CK2 (rCK2) in the absence (lane 6) or presence of 10 mM 2,3-diphosphoglycerate (lane 7) together with [γ-^32P]ATP (lanes 1-3, 6, and 7) or [γ-^32P]GTP (lanes 4 and 5). The arrow indicates the position of the full-length GST-CCA1 protein.
(§2) GST-CCA1 bound to glutathione-agarose beads was resuspended in 50 μl of CK2 buffer (50 mM Tris-HCl, pH 7.5, 10 mM MgCl2, 100 mM NaCl, 1 mM DTT. 0.1 mM ATP or GTP) in the presence of 5-10 μCi of [γ-^32P]ATP or GTP. The reaction was started by adding CK2 or whole-cell extracts (WCE) and incubating samples at 30° C. for 30 min. WCE were prepared as described previously (3) except that the phosphatase inhibitor cocktail (5 mM NH4VO3, 0.2 mM ammonium molybdate, 1 mM EGTA, 50 mM NaF) was added to extraction buffer. The beads were washed with phosphate-buffered saline (PBS) containing 1% Triton X-100 and resuspended in 1X SDS-PAGE sample buffer. The phosphorylated samples were separated by 10% SDS-PAGE. ^32P-labeled bands were detected by autoradiography and quantitated with a PhosphorImager.
(§3) We next examined whether plants contain a CK2-like protein kinase activity that can phosphorylate CCA1 in vitro. […]

recombinant CK2 = assay: In vitro kinase assay: phosphorylation of GST-CCA1 by recombinant CK2; type: biochemical, Arabidopsis; details: 10 mM inhibitor, recombinant CK2, [γ-32P]ATP
Procedure: as §1, §2, §3

[2] = system: major DNA-protein complex containing CCA1; assay: EMSA: formation of the DNA-protein complex containing CCA1 in plant whole-cell extracts (A2 fragment of Lhcb1*3); type: biochemical, Arabidopsis; details: WCE preincubated 45 min at 30° C.
Procedure: WCE were incubated in the absence (lane 1) or presence (lane 2) of λ protein phosphatase (200 units added to 200 μl) for 30 min at 30° C. […] WCE from wild type (WT) and a CCA1-ox line (CCA1-ox) (7) grown in 12:12 photoperiods were used in the EMSA. […] WCE were incubated with the indicated inhibitor for 45 min at 30° C. Lane 1, no inhibitors; lane 2, 5 mM 2,3-diphosphoglycerate (D.G.); lane 3, 100 μM quercetin. Arrows indicate the position of the major DNA-protein complex containing CCA1.
CCA1 was incubated with 0.1 ng of end-labeled A2 fragment of the Arabidopsis Lhcb 1*3 gene (56) in the presence of 0.5 μg of poly(dI-dC) at 25° C. for 15 min. WCE were incubated in preincubation buffer (50 mM Tris-HCl, pH 7.5, 2 mM MnCl2, 5 mM DTT, 0.1 mM EDTA, 0.01% Brij 35) at 30° C. for 45 min, then incubated with the A2 probe in the presence of 1 μg of poly(dI-dC). The EMSA buffer and electrophoresis conditions have been described (56). DNA-protein complexes were detected by autoradiography.
The A2 fragment used as a probe includes known binding sites for G-box and CAAT binding proteins (56). […] Further evidence that the marked complex contains CCA1 includes the observations (data not shown) that this complex is absent in extracts prepared from CCA1-null mutant plants and that addition of anti-CCA1 antibodies inhibits its formation. […]

CK1 and CK2 = details: cited from earlier work

| Compound | reduction of incorporation of ATP into GST-CCA1 [1] [%] | reduction of phosphorylation of CCA1 (recombinant CK2) [%] | formation of the DNA-protein complex containing CCA1 ([2]; 5 mM inhibitor) | kinase inhibition specificity (CK1 and CK2) | formation of the DNA-protein complex containing CCA1 ([2]; 100 μM inhibitor) |
| --- | --- | --- | --- | --- | --- |
| 2,3-diphosphoglycerate | 63 | 77 | abolished | inhibits both CK1 and CK2 |  |
| O=c1c(O)c(-c2ccc(O)c(O)c2)oc2cc(O)cc(O)c12 [quercetin] |  |  |  | specific to CK2 | abolished |
